Data: paper PMC7072645, “Targeting the Class A Carbapenemase GES-5 via Virtual Screening” (Biomolecules, 2020)

How the values were obtained:
[1] = biological target: T1, GES-5 (Klebsiella pneumoniae, UniProt Q09HD0); assay type: biochemical; conditions: reporter substrate, purified recombinant GES-5
T1 construct: made in house; host or cells: E. coli BL21(DE3)
Procedure: For protein expression, competent E. coli BL21(DE3) cells (PROMEGA, Madison, WI, USA) were transformed with recombinant plasmid blaGES-5/pet24a(+) as reported. Protein purification was performed using an Äkta Prime plus chromatograph system (GE Healthcare Life Sciences, Freiburg, Germany). GES-5 (Uniprot ID Q09HD0) was conveniently purified in a single step using a Macro-Prep High Q resin (Bio-Rad, Hercules, CA, USA.).

[2] = biological target: KPC-2 (Klebsiella pneumoniae, UniProt Q9F663); assay: KPC-2 inhibition assay, conducted as previously reported; assay type: biochemical; conditions: for % inhibition at [1mM] vs KPC-2: 1 mM inhibitor; for Ki: calculated from IC50 by Cheng-Prusoff; for LE vs. KPC-2: ligand efficiency from Ki vs KPC-2
Procedure: (§1) Reactions were monitored using a Jasco V730 spectrophotometer. […] In order to perform spectrophotometric tests, compounds were dissolved in dimethyl sulfoxide (DMSO) to a concentration of 25 mM and stored at −20 °C. […] The reaction was typically initiated by adding GES-5 (2 nM final concentration), previously dialyzed in the reaction buffer. […] For KPC-2 experiments, the protein was obtained, and assays were conducted as previously reported.

[3] = biological target: T1, GES-5; assay: GES-5 hydrolysis inhibition, nitrocefin spectrophotometric assay; assay type: biochemical; conditions: for LE vs. GES-5: ligand efficiency from Ki vs GES-5
Procedure: as §1

[4] = test system: O=C(Cc1cccs1)N[C@@H]1C(=O)N2C(C(=O)O)=C(/C=C/c3ccc([N+](=O)[O-])cc3[N+](=O)[O-])CS[C@H]12; assay: purified protein, by the assay type; conditions: other: reporter substrate, purified recombinant GES-5

Sequence of KPC-2 (Q9F663 25-293, looked up, species assumed): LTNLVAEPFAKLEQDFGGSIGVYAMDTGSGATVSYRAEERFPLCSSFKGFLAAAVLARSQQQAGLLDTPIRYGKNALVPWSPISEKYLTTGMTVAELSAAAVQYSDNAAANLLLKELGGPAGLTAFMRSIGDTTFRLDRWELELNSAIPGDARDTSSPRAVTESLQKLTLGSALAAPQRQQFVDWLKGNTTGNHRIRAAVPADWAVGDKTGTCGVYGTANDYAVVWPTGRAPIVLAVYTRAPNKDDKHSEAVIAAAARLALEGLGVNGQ
T1 sequence (Q09HD0 19-287): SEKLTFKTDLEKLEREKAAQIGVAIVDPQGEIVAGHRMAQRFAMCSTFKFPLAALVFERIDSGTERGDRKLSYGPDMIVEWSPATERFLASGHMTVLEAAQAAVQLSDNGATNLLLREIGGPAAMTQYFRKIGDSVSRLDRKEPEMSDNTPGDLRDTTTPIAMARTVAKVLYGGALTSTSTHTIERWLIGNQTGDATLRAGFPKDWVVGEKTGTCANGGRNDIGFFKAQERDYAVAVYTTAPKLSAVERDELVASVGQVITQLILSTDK

| Compound | Km [1] [µM] | % inhibition at [1mM] vs KPC-2 [2] | Ki [2] [µM] | LE vs. KPC-2 [2] | Ki [3] [µM] | LE vs. GES-5 [3] | % inhibition at [1mM] vs GES-5 [3] [%] | Km [4] [µM] |
| --- | --- | --- | --- | --- | --- | --- | --- | --- |
| O=C(Cc1cccs1)N[C@@H]1C(=O)N2C(C(=O)O)=C(CSc3ccc([N+](=O)[O-])c(C(=O)O)c3)CS[C@H]12 [CENTA] | 524 |  |  |  |  |  |  |  |
| COc1cc(Br)c(-c2nnn[nH]2)cc1OC [Compound 8] |  | at least 30% | 350 | 0.30 kcal/mol/non-hydrogen atom | 890 | 0.89 (0.27) kcal/mol/non-hydrogen atom |  |  |
| O=C(O)c1cccc(S(=O)(=O)Nc2cccnc2)c1 [Compound 12] |  | at least 30% | 1380 | 0.21 kcal/mol/non-hydrogen atom | 1010 | 1.01 (0.22) kcal/mol/non-hydrogen atom |  |  |
| Nc1nc(=O)n(CC(O)C(=O)O)cc1Br (centres unmarked) [Compound 13] |  | at least 30% | 280 | 0.33 kcal/mol/non-hydrogen atom | 810 |  |  |  |
| COc1ccc2[nH]c(C(=O)O)nc2c1 [Compound 43] |  |  | 450 | 0.33 kcal/mol/non-hydrogen atom | 660 |  | 41 |  |
| GES-5 (Klebsiella pneumoniae) |  |  |  |  |  |  |  | 208 |
